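Briefly, cells in 96-well plates were exposed to five compound concentrations for 48 h, and endpoints were estimated by linear interpolation. The concentration for 50% growth inhibition is given as GI50. The concentration for full growth arrest is given as TGI.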 Where only a bound is given, the exact number is not on record here.

Common to all, as to test: NCI-60 cell line screen, 48 h
The subject of assay [1] is MALME-3M melanoma.
The subject of assay [2] is T-47D breast.
Assay [3] has as its system OVCAR-3 ovarian.
The test system of assay [4] is HOP-92 NSCLC.
For assay [5], the system named is MOLT-4 leukemia.
The subject of assay [6] is SF-295 CNS.
The subject of assay [7] is NCI-H522 lung.
Assay [8] relates to HS 578T breast.
Assay [9] concerns SK-MEL-2 melanoma.
In assay [10] the test system is SK-MEL-28 melanoma.

As for `O=C(Nc1cccc(Oc2nnc(Cl)c3ccccc23)c1)Nc1ccc(Cl)c(C(F)(F)F)c1`, the GI50 in [1] is 0.968 µM; in assay [2] it was 0.384 µM; in [3], 0.773 µM; in assay [4], 0.352 µM; in assay [5] it was 0.494 µM; in [6], 0.657 µM. For the same molecule, the GI50 in [7] was 0.499 µM; in assay [8] it was 1.72 µM; in assay [9] it was 0.698 µM; in assay [10], 0.933 µM. The TGI in assay [1] came to 4 µM; in [2], 2.24 µM; in [3], 4.46 µM; in [4] it was 1.96 µM; in assay [5], 4.18 µM; in assay [6] it was 3.7 µM. For the same molecule, the TGI in assay [7] was 3.46 µM; in [8] it was 8.18 µM; in [9], 3.24 µM; in assay [10], 3.54 µM.
In the case of `CC(C)(C)c1[nH]cnc1/C=c1\[nH]c(=O)/c(=C/c2ccccc2)[nH]c1=O`, the GI50 in assay [1] is under 0.105 µM; in assay [2], under 0.0592 µM; in assay [3] it was under 0.01 µM; in [4], under 0.0118 µM; in [5], 0.0215 µM; in assay [6] it was under 0.01 µM. Also, the GI50 in assay [7] was under 0.01 µM; in [8] it was under 0.01 µM; in assay [9], under 0.0108 µM; in assay [10] it was 10.5 µM. Moreover, the TGI was 29.8 µM in assay [1]; 30.9 µM in assay [2]; 19.2 µM in assay [3]; 9.11 µM in assay [4]; 19.7 µM in [5]; 20.5 µM in [6]. In addition, the TGI in assay [7] was 0.159 µM; in assay [8], over 71.8 µM; in assay [9] it was 30.7 µM; in assay [10], 28.3 µM.
Take `C=CC(C)(O)/C=C/C=C(\C)C(CC1OC1(C)C)OC(=O)/C(C)=C\C` (centres undefined): the TGI in assay [1], in assay [2], in assay [3], in assay [4], in [5] and in assay [6] was over 100 µM throughout. In addition, the TGI in assay [7], in [8], in [9] and in assay [10] was over 100 µM in each case.
With `C/C(=C\C1=C(Cl)C(=O)c2ccccc2C1=O)C(=O)O`, the GI50 in assay [1] was 24 µM; in [2], 15.3 µM; in assay [3], 19.4 µM; in [4], 18.6 µM; in [5], 28.2 µM; in [6], 19 µM. Moreover, the GI50 in assay [7] is 11.9 µM; in assay [8] it was 30.3 µM; in assay [9], 18.1 µM; in assay [10] it was 20.2 µM. Besides, the TGI is 40.2 µM in assay [1]; 48.7 µM in assay [2]; 34.2 µM in assay [3]; 33 µM in [4]; over 100 µM in assay [5]; 33.4 µM in assay [6]. For the same molecule, the TGI in assay [7] turned out to be 26.9 µM; in assay [8] it was 69.3 µM; in [9], 33.4 µM; in [10] it was 34.6 µM.
In the case of `CN(C)CCOc1ccc(/C(=C(/CCCl)c2ccccc2)c2ccccc2)cc1`, the GI50 in [1] was 0.976 µM; in assay [2], 0.841 µM; in [3], 0.928 µM; in [5], 1.12 µM; in assay [6] it was 1.02 µM; in assay [7], 0.9 µM. Also, the results for the GI50 in assay [8], in assay [9] and in assay [10] were 0.895 µM, 0.975 µM and 0.912 µM, respectively. Besides, in assay [4], the TGI amounted to 17.1 µM.
With `CN=C(NC#N)NCCSCc1nc[nH]c1C`, the TGI in [1], in [2], in assay [3], in assay [4], in assay [5] and in assay [6] was over 100 µM each time. The TGI in [7], in assay [8], in assay [9] and in assay [10] was over 100 µM throughout.
Consider `Cc1cnc(/C=N\NC(N)=S)c2cccc(N)c12`, for which the GI50 is 3.53 µM in assay [1]; 2.49 µM in assay [2]; 3.03 µM in assay [3]; 2.07 µM in [4]; 1.5 µM in assay [5]; 2.36 µM in assay [6]. Moreover, the GI50 in assay [7] is 3.87 µM; in assay [8], over 58 µM; in assay [9] it was over 29.2 µM. Further, the TGI in [1], in assay [2], in [3], in assay [4], in assay [5] and in [6] was over 100 µM in each case. In addition, the TGI in assay [7], in [8], in assay [9] and in assay [10] was over 100 µM throughout.
Regarding `Cn1c(O)c(C(/C=C/c2ccccc2)=NCCN=C(/C=C/c2ccccc2)c2c(O)n(C)c(=O)n(C)c2=O)c(=O)n(C)c1=O`, the GI50 in assay [1] was 30.9 µM; in [2] it was 16.1 µM; in [3], 21 µM; in assay [4], 12 µM; in [5], 15.8 µM; in assay [6], 16.2 µM. In addition, the GI50 in assay [7] was 16.8 µM; in [8], 13.4 µM; in [9], 27.3 µM; in assay [10] it was 10.2 µM. Also, the TGI in assay [1] is over 50 µM; in assay [2] it was over 50 µM; in assay [3] it was over 50 µM; in assay [4], 32.5 µM; in assay [5] it was over 50 µM; in assay [6], over 50 µM. The TGI in [7] was over 50 µM; in [8], 34.7 µM; in assay [9], over 50 µM; in assay [10] it was 33.6 µM.

Values taken from PubChem BioAssay (NCI).
